Data taken from ChEMBL document CHEMBL3885881, “DrugMatrix”.

Organism: Rattus norvegicus
Assay: DrugMatrix - Regimen: Daily Repeat
Type: toxicity, organism-based, Sprague-Dawley
Design: regimen Daily Repeat, gender Male, age 6-8 weeks
Conditions: in vivo, po, route oral GAVAGE, vehicle .5 % CMC; for ABSOLUTE BASOPHIL / ABSOLUTE EOSINOPHIL / ABSOLUTE LYMPHOCYTE / ABSOLUTE MONOCYTE / ABSOLUTE SEGMENTED NEUTROPHIL / BASOPHIL / EOSINOPHIL / ERYTHROCYTE COUNT / HEMATOCRIT / HEMOGLOBIN / LEUKOCYTE COUNT / LYMPHOCYTE / MEAN CORPUSCULAR HEMOGLOBIN / MEAN CORPUSCULAR HEMOGLOBIN CONCENTRATION / MEAN CORPUSCULAR VOLUME / MONOCYTE / NEUTROPHIL / NUCLEATED RED BLOOD CELLS / PLATELET COUNT: tissue Blood; for ALANINE AMINOTRANSFERASE / ALBUMIN / ALKALINE PHOSPHATASE / ASPARTATE AMINOTRANSFERASE / BLOOD UREA NITROGEN / CARBON DIOXIDE / CHLORIDE / CHOLESTEROL / CREATINE PHOSPHOKINASE / CREATININE / GLUCOSE / LACTATE DEHYDROGENASE / LIPASE / PHOSPHORUS / POTASSIUM / SODIUM / TOTAL BILIRUBIN / TOTAL PROTEIN / URIC ACID: tissue Plasma
[1] = 2 mg/kg, 72 h, dose level Low, time 3 day
[2] = 2 mg/kg, 120 h, dose level Low, time 5 day
[3] = 83 mg/kg, 72 h, dose level High, time 3 day
[4] = 83 mg/kg, 120 h, dose level High, time 5 day

Nc1cc(N2CCCCC2)nc(N)[n+]1[O-] [MINOXIDIL]
ABSOLUTE BASOPHIL [1]: 0 CELLS/uL
ABSOLUTE EOSINOPHIL [1]: 0 CELLS/uL
ABSOLUTE LYMPHOCYTE [1]: 9089 CELLS/uL
ABSOLUTE MONOCYTE [1]: 42.33 CELLS/uL
ABSOLUTE SEGMENTED NEUTROPHIL [1]: 735.33 CELLS/uL
BASOPHIL [1]: 0%
EOSINOPHIL [1]: 0%
ERYTHROCYTE COUNT [1]: 4.78 x10E6/uL
HEMATOCRIT [1]: 30.6%
HEMOGLOBIN [1]: 12.57 G/DL
LEUKOCYTE COUNT [1]: 9.87 x10E3/uL
LYMPHOCYTE [1]: 92%
MEAN CORPUSCULAR HEMOGLOBIN [1]: 26.3 pg
MEAN CORPUSCULAR HEMOGLOBIN CONCENTRATION [1]: 41.1 G/DL
MEAN CORPUSCULAR VOLUME [1]: 64.07 fL
MONOCYTE [1]: 0.33%
NEUTROPHIL [1]: 7.67%
NUCLEATED RED BLOOD CELLS [1]: 0 /100WBC
PLATELET COUNT [1]: 1041 x10E3/uL
ALANINE AMINOTRANSFERASE [1]: 50.33 u/L
ALBUMIN [1]: 4.3 G/DL
ALKALINE PHOSPHATASE [1]: 415 u/L
ASPARTATE AMINOTRANSFERASE [1]: 94.33 u/L
BLOOD UREA NITROGEN [1]: 18 mg/dL
CARBON DIOXIDE [1]: 35.33 mmol/L
CHLORIDE [1]: 100.67 MEQ/L
CHOLESTEROL [1]: 74.67 mg/dL
CREATINE PHOSPHOKINASE [1]: 368.67 u/L
CREATININE [1]: 0.23 mg/dL
GLUCOSE [1]: 127.67 mg/dL
LACTATE DEHYDROGENASE [1]: 159 u/L
LIPASE [1]: 10 u/L
PHOSPHORUS [1]: 11.3 mg/dL
POTASSIUM [1]: 6.23 MEQ/L
SODIUM [1]: 147.5 MEQ/L
TOTAL BILIRUBIN [1]: 0.1 mg/dL
TOTAL PROTEIN [1]: 6.03 G/DL
URIC ACID [1]: 0.93 mg/dL
ABSOLUTE BASOPHIL [2]: 0 CELLS/uL
ABSOLUTE EOSINOPHIL [2]: 0 CELLS/uL
ABSOLUTE LYMPHOCYTE [2]: 14468 CELLS/uL
ABSOLUTE MONOCYTE [2]: 213.67 CELLS/uL
ABSOLUTE SEGMENTED NEUTROPHIL [2]: 818.33 CELLS/uL
BASOPHIL [2]: 0%
EOSINOPHIL [2]: 0%
ERYTHROCYTE COUNT [2]: 5.34 x10E6/uL
HEMATOCRIT [2]: 33.6%
HEMOGLOBIN [2]: 13.27 G/DL
LEUKOCYTE COUNT [2]: 15.5 x10E3/uL
LYMPHOCYTE [2]: 93.33%
MEAN CORPUSCULAR HEMOGLOBIN [2]: 24.8 pg
MEAN CORPUSCULAR HEMOGLOBIN CONCENTRATION [2]: 39.47 G/DL
MEAN CORPUSCULAR VOLUME [2]: 62.9 fL
MONOCYTE [2]: 1.33%
NEUTROPHIL [2]: 5.33%
NUCLEATED RED BLOOD CELLS [2]: 0 /100WBC
PLATELET COUNT [2]: 1308.33 x10E3/uL
ALANINE AMINOTRANSFERASE [2]: 52 u/L
ALBUMIN [2]: 4.33 G/DL
ALKALINE PHOSPHATASE [2]: 362.67 u/L
ASPARTATE AMINOTRANSFERASE [2]: 78.67 u/L
BLOOD UREA NITROGEN [2]: 18 mg/dL
CARBON DIOXIDE [2]: 33 mmol/L
CHLORIDE [2]: 102 MEQ/L
CHOLESTEROL [2]: 75.33 mg/dL
CREATINE PHOSPHOKINASE [2]: 156.33 u/L
CREATININE [2]: 0.2 mg/dL
GLUCOSE [2]: 153 mg/dL
LACTATE DEHYDROGENASE [2]: 135.67 u/L
LIPASE [2]: 8.67 u/L
PHOSPHORUS [2]: 14.1 mg/dL
POTASSIUM [2]: 6.87 MEQ/L
SODIUM [2]: 146.73 MEQ/L
TOTAL BILIRUBIN [2]: 0.27 mg/dL
TOTAL PROTEIN [2]: 6.27 G/DL
URIC ACID [2]: 1.43 mg/dL
ABSOLUTE BASOPHIL [3]: 0 CELLS/uL
ABSOLUTE EOSINOPHIL [3]: 0 CELLS/uL
ABSOLUTE LYMPHOCYTE [3]: 11593 CELLS/uL
ABSOLUTE MONOCYTE [3]: 0 CELLS/uL
ABSOLUTE SEGMENTED NEUTROPHIL [3]: 1707 CELLS/uL
BASOPHIL [3]: 0%
EOSINOPHIL [3]: 0%
ERYTHROCYTE COUNT [3]: 4.83 x10E6/uL
HEMATOCRIT [3]: 30.37%
HEMOGLOBIN [3]: 12.7 G/DL
LEUKOCYTE COUNT [3]: 13.3 x10E3/uL
LYMPHOCYTE [3]: 87.67%
MEAN CORPUSCULAR HEMOGLOBIN [3]: 26.3 pg
MEAN CORPUSCULAR HEMOGLOBIN CONCENTRATION [3]: 41.83 G/DL
MEAN CORPUSCULAR VOLUME [3]: 62.8 fL
MONOCYTE [3]: 0%
NEUTROPHIL [3]: 12.33%
NUCLEATED RED BLOOD CELLS [3]: 0 /100WBC
PLATELET COUNT [3]: 1119.33 x10E3/uL
ALANINE AMINOTRANSFERASE [3]: 40.33 u/L
ALBUMIN [3]: 4.27 G/DL
ALKALINE PHOSPHATASE [3]: 346.33 u/L
ASPARTATE AMINOTRANSFERASE [3]: 73.67 u/L
BLOOD UREA NITROGEN [3]: 18.33 mg/dL
CARBON DIOXIDE [3]: 30.33 mmol/L
CHLORIDE [3]: 103.33 MEQ/L
CHOLESTEROL [3]: 70.33 mg/dL
CREATINE PHOSPHOKINASE [3]: 164 u/L
CREATININE [3]: 0.15 mg/dL
GLUCOSE [3]: 140 mg/dL
LACTATE DEHYDROGENASE [3]: 144 u/L
LIPASE [3]: 9.33 u/L
PHOSPHORUS [3]: 12.47 mg/dL
POTASSIUM [3]: 6.31 MEQ/L
SODIUM [3]: 145.1 MEQ/L
TOTAL BILIRUBIN [3]: 0.17 mg/dL
TOTAL PROTEIN [3]: 5.67 G/DL
URIC ACID [3]: 1.33 mg/dL
ABSOLUTE BASOPHIL [4]: 0 CELLS/uL
ABSOLUTE EOSINOPHIL [4]: 0 CELLS/uL
ABSOLUTE LYMPHOCYTE [4]: 12306 CELLS/uL
ABSOLUTE MONOCYTE [4]: 270 CELLS/uL
ABSOLUTE SEGMENTED NEUTROPHIL [4]: 990.67 CELLS/uL
BASOPHIL [4]: 0%
EOSINOPHIL [4]: 0%
ERYTHROCYTE COUNT [4]: 5.12 x10E6/uL
HEMATOCRIT [4]: 32.97%
HEMOGLOBIN [4]: 13.17 G/DL
LEUKOCYTE COUNT [4]: 13.57 x10E3/uL
LYMPHOCYTE [4]: 90.67%
MEAN CORPUSCULAR HEMOGLOBIN [4]: 25.77 pg
MEAN CORPUSCULAR HEMOGLOBIN CONCENTRATION [4]: 39.93 G/DL
MEAN CORPUSCULAR VOLUME [4]: 64.53 fL
MONOCYTE [4]: 2%
NEUTROPHIL [4]: 7.33%
NUCLEATED RED BLOOD CELLS [4]: 0.33 /100WBC
PLATELET COUNT [4]: 1460 x10E3/uL
ALANINE AMINOTRANSFERASE [4]: 52.33 u/L
ALBUMIN [4]: 4.33 G/DL
ALKALINE PHOSPHATASE [4]: 352.67 u/L
ASPARTATE AMINOTRANSFERASE [4]: 78.67 u/L
BLOOD UREA NITROGEN [4]: 18 mg/dL
CARBON DIOXIDE [4]: 34.67 mmol/L
CHLORIDE [4]: 100.67 MEQ/L
CHOLESTEROL [4]: 77.33 mg/dL
CREATINE PHOSPHOKINASE [4]: 322.67 u/L
CREATININE [4]: 0.29 mg/dL
GLUCOSE [4]: 137 mg/dL
LACTATE DEHYDROGENASE [4]: 304 u/L
LIPASE [4]: 11 u/L
PHOSPHORUS [4]: 11.17 mg/dL
POTASSIUM [4]: 6.32 MEQ/L
SODIUM [4]: 143.43 MEQ/L
TOTAL BILIRUBIN [4]: 0.23 mg/dL
TOTAL PROTEIN [4]: 5.9 G/DL
URIC ACID [4]: 1.43 mg/dL
